Data from patent US11458142B2, “Compositions and methods for ameliorating pain” (The Board of Supervisors of Louisiana State University and …, priority 2017, dated 2022).
Several values for one entry are separate records, joined by “and”; a condition that tells them apart may be missing. Equal entries are not always repeated.

Columns and labels:
[1] = tested on: CD1 male mice; assay: Blood creatinine functional assay; format: in vivo, mouse; conditions: 600 mg/Kg PO, serum
[2] = tested on: CD1 male mice; assay: Liver function assays (ALT, AST, ALP) in serum; format: in vivo, mouse; conditions: 600 mg/kg PO
[3] = tested on: CD1 male mice; assay: Acetic acid-induced abdominal writhing assay; format: in vivo, mouse; conditions: for No. of writhes counted within a 10 min time interval, 25 min post drug administration, beginning 5 min after acetic acid injection: 75 mg/Kg body weight p.o., single animals, n = 7 (raw data for FIG. 1A); for number of writhes induced by injection of acetic acid: mean, vehicle only 42.3+/−7.2
Protocol: Two different assays were utilized to quantify the analgesic effects of the compounds. All tests were performed on CD1 male mice. […] In some embodiments, the vehicle can comprise Agent K, 0.2%, Bio-serve, or Labrafil 1944 (Gottefosee, France). Compound or vehicle was administered orally by lavage under brief halothane anesthesia to animals fasted overnight.
Acetic acid-induced abdominal writhing assay. Contraction of the abdominal muscle and stretching of the hind limbs is induced as a response to intraperitoneal (ip) injection of an acetic acid solution, as described Hendershot and Forsaith, 1959. In this model of visceral pain, abdominal contractions (writhing) is induced in mice by an ip injection of 0.4% acetic acid at a dose of 10 mL/Kg, 25 min after drug administration. The number of writhes is counted for 10 min beginning 5 min after acetic acid injection. […] Data is expressed as mean±SEM, n=7.

[4] = tested on: HepaRG and hHEPs; assay: GSH assay (ThiolTracker Violet) in hepatocytes; format: cell-based, human; conditions: 500 μM and 1000 μM; time and dose-dependent
Protocol: (§1) HepaRG cells procured from Thermo Fisher Scientific (Invitrogen) are terminally differentiated hepatic cells, which are derived from a hepatic progenitor cell line that retains many characteristics of primary human hepatocytes. […] LDH assay. Using the Pierce LDH Cytotoxicity assay kit from Thermo Scientific, cells were incubated in presence of various drug compounds, followed by collection of the medium supernatant. Release of LDH was measured in 96 well plate formats. The absorbance was measured at 490 nm and 680 nm and the final result was absorbance observed at 680 nm subtracted from absorbance observed at 490 nm (A490 nm-[…] nm). GSH assay. Using the ThiolTracker Violet Glutathione Detection reagent from Molecular Probes (Invitrogen), after hepatocytes were incubated in the presence of various compounds, incubation medium was removed, cells rinsed with D-PBS conditioned medium followed by incubation with pre-warmed ThiolTracker Violet dye (working solution prepared as per manufacturer's instructions) for 30 minutes. Fluorescence was measured at the following wavelengths: excitation (404 nm) and emission (526 nm). The finalized result was expressed as relative fluorescence units (RFU), which indicates the cellular level of reduced glutathione (GSH) in intact cells.

[5] = tested on: CD1 male mice; assay: Tail-flick assay; format: in vivo, mouse; conditions: 600 mg/Kg per os, 30 minutes post injection; versus ApAP
Protocol: Two different assays were utilized to quantify the analgesic effects of the compounds. All tests were performed on CD1 male mice. […] In some embodiments, the vehicle can comprise Agent K, 0.2%, Bio-serve, or Labrafil 1944 (Gottefosee, France). Compound or vehicle was administered orally by lavage under brief halothane anesthesia to animals fasted overnight. Tail-flick assay. Analgesic effect of drugs was determined by using the reaction time (latency) of mice to thermal stimulation of the tail tip. All animals (CD1 male mice) were fasted overnight (15 hours) and, their baseline tail flick latency (seconds) was recorded using an IITC Tail Flick Analgesia Meter. The tail of each mouse was exposed to a focused beam of light and the latency to remove the tail from the path of the stimulus were recorded electronically using a photoelectric cell of the IITC Tail Flick Analgesia Meter. The stimulus intensity was adjusted to produce baseline latencies of 3-6 seconds. […] At 30 minutes post injection, tail flick latency was recorded again to determine total change in latency. […] Data expressed as mean±SEM, n=10.

[6] = tested on: mouse; assay: LPS-induced fever mouse model; format: in vivo; conditions: versus ApAP, 2 h, 8 h and 10 h
[7] = target: T1, CYP2D6 (Homo sapiens, UniProt P10635); assay: VIVID CYP450 screening assay, CYP2D6; format: in vitro ADME
T1 construct: purchased Life Technologies, Invitrogen/Thermo Fisher Scientific; host or cells: insect cells (microsomes)
Protocol: (§2) The […]450 screening assay kit (Life Technologies, Invitrogen/Thermo Fisher Scientific) was used as an in vitro high throughput screening. Here, each compound was mixed with a master pre-mix comprising of CYP450 BACULOSOMES (which are microsomes prepared from insect cells expressing a specific human P450 isoenzyme), reagent and regeneration system, which contained glucose-6-phosphate and glucose-6-phosphate dehydrogenase. The mixture was pre-incubated at room temperature for 20 minutes. Following this, each CYP enzyme specific substrate and NADP^+ were added and the mixture incubated at room temperature for 30 minutes. The reaction was stopped by addition of 0.5 M Tris base. CYP activity was evaluated by measuring the fluorescence of the fluorescent metabolite generated from each CYP enzyme specific substrate.

[8] = target: T2, CYP2E1 (Homo sapiens, UniProt P05181); assay: VIVID CYP450 screening assay, CYP2E1; format: in vitro ADME; conditions: probe CYP enzyme specific fluorogenic substrate (not named)
T2 construct: purchased Life Technologies, Invitrogen/Thermo Fisher Scientific; host or cells: insect cells (microsomes)
Protocol: as §2

[9] = tested on: HepaRG and hHEPs; assay: LDH cytotoxicity assay in hepatocytes; format: cell-based, human; conditions: 500 μM and 1000 μM; time and dose-dependent
Protocol: as §1

[10] = target: T3, CYP3A4 (Homo sapiens, UniProt P08684); assay: VIVID CYP450 screening assay, CYP3A4; format: in vitro ADME; conditions: probe CYP enzyme specific fluorogenic substrate (not named)
T3 construct: purchased Life Technologies, Invitrogen/Thermo Fisher Scientific; host or cells: insect cells (microsomes)
Protocol: as §2

T1 sequence (P10635 whole entry): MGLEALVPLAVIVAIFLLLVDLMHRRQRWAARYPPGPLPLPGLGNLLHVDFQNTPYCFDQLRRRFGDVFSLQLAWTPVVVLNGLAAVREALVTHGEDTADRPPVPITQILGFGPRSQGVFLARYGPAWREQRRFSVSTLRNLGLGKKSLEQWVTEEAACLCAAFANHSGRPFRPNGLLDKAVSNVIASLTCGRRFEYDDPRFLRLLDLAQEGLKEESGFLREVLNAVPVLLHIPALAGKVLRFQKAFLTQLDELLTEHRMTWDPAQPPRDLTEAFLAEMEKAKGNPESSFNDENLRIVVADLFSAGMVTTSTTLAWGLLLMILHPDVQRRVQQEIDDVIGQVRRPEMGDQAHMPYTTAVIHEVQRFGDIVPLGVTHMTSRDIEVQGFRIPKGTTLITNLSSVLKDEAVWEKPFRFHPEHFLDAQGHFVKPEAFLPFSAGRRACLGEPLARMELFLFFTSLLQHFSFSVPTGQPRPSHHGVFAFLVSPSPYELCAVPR
T3 sequence (P08684 whole entry): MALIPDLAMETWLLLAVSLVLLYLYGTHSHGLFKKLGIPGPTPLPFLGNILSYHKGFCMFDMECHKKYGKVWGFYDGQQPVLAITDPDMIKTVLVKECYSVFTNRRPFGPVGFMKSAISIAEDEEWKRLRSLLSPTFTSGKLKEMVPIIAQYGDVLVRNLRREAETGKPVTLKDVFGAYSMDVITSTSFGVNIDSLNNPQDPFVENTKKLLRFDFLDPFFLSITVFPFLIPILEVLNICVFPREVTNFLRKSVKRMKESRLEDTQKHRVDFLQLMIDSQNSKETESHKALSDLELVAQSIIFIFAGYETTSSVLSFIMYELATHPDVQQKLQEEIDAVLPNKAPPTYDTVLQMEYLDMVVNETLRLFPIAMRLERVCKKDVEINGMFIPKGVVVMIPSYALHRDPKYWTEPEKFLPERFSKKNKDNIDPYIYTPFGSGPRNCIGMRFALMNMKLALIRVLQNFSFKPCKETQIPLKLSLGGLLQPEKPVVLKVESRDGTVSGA
T2 sequence (P05181 whole entry): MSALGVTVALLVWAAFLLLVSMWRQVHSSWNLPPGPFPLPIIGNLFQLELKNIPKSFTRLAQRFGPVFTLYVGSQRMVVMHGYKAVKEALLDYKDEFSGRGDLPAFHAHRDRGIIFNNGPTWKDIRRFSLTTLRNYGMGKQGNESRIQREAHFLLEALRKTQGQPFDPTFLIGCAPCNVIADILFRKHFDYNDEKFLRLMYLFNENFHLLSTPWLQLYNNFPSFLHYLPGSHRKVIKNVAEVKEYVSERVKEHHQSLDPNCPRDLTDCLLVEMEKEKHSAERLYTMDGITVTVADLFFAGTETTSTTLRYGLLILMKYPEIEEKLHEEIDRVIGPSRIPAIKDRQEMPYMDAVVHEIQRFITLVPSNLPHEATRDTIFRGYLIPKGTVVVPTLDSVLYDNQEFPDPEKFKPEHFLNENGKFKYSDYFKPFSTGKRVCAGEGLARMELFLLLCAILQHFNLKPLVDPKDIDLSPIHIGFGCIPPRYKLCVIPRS

CC(=O)Nc1ccc(O)cc1 [ApAP, N-acetyl-para-aminophenol, reference compound]
blood creatinine levels [1]: increased levels of creatinine
ALT, AST and AP enzyme activity (liver function tests) [2]: Increased levels
No. of writhes counted within a 10 min time interval, 25 min post drug administration, beginning 5 min after acetic acid injection [3]: 11 and 12 and 14 and 15 and 16 (3×)

CCN(CC)C(=O)c1ccccc1S(=O)(=O)NCC(=O)Nc1ccc(O)cc1 [SRP6d, 2-<[(4-Hydroxy-phenylcarbamoyl)-methyl]-sulfamoyl>-N,N-diethyl-benzamide]
amount of reduced glutathione (GSH) [4]: increased
analgesia in tail flick test (latency) [5]: comparable significant analgesia
antipyresis (temperature curves) [6]: comparable antipyresis to ApAP
inhibitory effect for CYP2D6 [7]: marginal inhibitory effect
inhibition at 30 min [8]: ~25%
lactate dehydrogenase (LDH) release [9]: consistently decreased
inhibition at 30 min [10]: ~25%
No. of writhes counted within a 10 min time interval, 25 min post drug administration, beginning 5 min after acetic acid injection [3]: 15 (3×) and 11 and 14 and 20 and 18
number of writhes induced by injection of acetic acid [3]: 15.7+/−1.2

COc1ccc(CNC(=O)c2ccccc2S(=O)(=O)NCC(=O)Nc2ccc(O)cc2)cc1 [SRP6j]
No. of writhes counted within a 10 min time interval, 25 min post drug administration, beginning 5 min after acetic acid injection [3]: 10 and 14 and 16 and 17 and 18 (2×) and 19

O=C(CNS(=O)(=O)c1ccccc1C(=O)NC1CCCC1)Nc1ccc(O)cc1 [SRP6o]
No. of writhes counted within a 10 min time interval, 25 min post drug administration, beginning 5 min after acetic acid injection [3]: 11 and 14 and 16 and 17 (2×) and 18 and 24

O=C(CNS(=O)(=O)c1ccccc1C(=O)NCCc1cccc(O)c1O)Nc1ccc(O)cc1 [SRP6r]
amount of reduced glutathione (GSH) [4]: increased
analgesia in tail flick test (latency) [5]: comparable significant analgesia
antipyresis (temperature curves) [6]: comparable antipyresis to ApAP
inhibitory effect for CYP2D6 [7]: marginal inhibitory effect
melting point: 87 to 89 °C
inhibition at 30 min [8]: ~25%
lactate dehydrogenase (LDH) release [9]: consistently decreased
inhibition at 30 min [10]: ~25%
No. of writhes counted within a 10 min time interval, 25 min post drug administration, beginning 5 min after acetic acid injection [3]: 9 and 12 and 18 and 20 and 25 and 26 (2×)
number of writhes induced by injection of acetic acid [3]: 9.5+/−4

CCCCNC(=O)c1ccccc1S(=O)(=O)NCC(=O)Nc1ccc(O)cc1 [SRP6i]
No. of writhes counted within a 10 min time interval, 25 min post drug administration, beginning 5 min after acetic acid injection [3]: 7 and 12 and 16 and 17 and 22 and 27 and 33

CC(C)CNC(=O)c1ccccc1S(=O)(=O)NCC(=O)Nc1ccc(O)cc1 [SRP6p]
No. of writhes counted within a 10 min time interval, 25 min post drug administration, beginning 5 min after acetic acid injection [3]: 14 (2×) and 17 and 24 and 26 and 29 and 30
